The structures appear in SMILES notation.

Consider eleven compounds from US20250306034A1, “Detection of Liver Disease” (Owlstone Medical Limited, priority 2022, published 2025).

One data set deals with AKR1B10 (Homo sapiens, UniProt O60218). The data set can be described thus: Bioproduct production in A549 WT and AKR1B10 KO cells, headspace GC-MS. Particulars: for substrate of AKR1B10 (converted to 1-nonanol / trans-2-hexenol by this enzyme): WT versus AKR1B10 KO A549 cells. The text has this:
We have tested conversion of these substrates to the respective bioproduct 1-nonanol, trans-2-hexenol, hexenol, benzyl alcohol, and nerol, in a cancer cell line overexpressing AKR1B10.
A549 lung cancer cells were targeted with a CRISP/Cas system to ablate the protein expression of AKR1B10. Specific sgRNA for the AKR1B10 gene were co-transfected in cells with SpCas9 using ribonucleoproteins (RNPs). Clonal cells were generated by using limiting dilution. […] Resulting protein extract for WT and AKR1B10 KO cells were analysed using the Jess system and samples were probed with an AKR1B10 specific antibody, and with an antibody against α-Tubulin as independent reporter.
5×10^4 cells/mL of WT or 3 AKR1B10 KO clone cells were seeded in 24-well plates using cell culture media and let adhere and proliferate for 48 hours to confluence. Then, they were treated with 30 μM nonanal or 10 µM trans-2-hexenal. […] Headspace analysis was performed by using Centri, coupled with a GC-MS Orbi-trap system. Peak identification of nonanal, 1-nonanol, trans-2-hexenal, and trans-2-hexenol, was performed by comparing the peak against reference standards.

The nature of data set [1]: Blood levels of bioproducts in NASH rat model (CDHFD vs normal diet). Conditions: for time after administration at which blood concentration increases / blood levels, CDHFD compared to ND rats: after oral 2-butanol 440 mg/Kg; for blood levels, CDHFD compared to ND rats: at 8 and 12 hours (480, 720 minutes).
Method: Blood samples were analysed using gas chromatography mass spectrometry (GC/-MS) or HPLC to measure metabolitic bioproducts benzoic acid, 3-hydroxy-2-butanone, 2-3-butanediol, and 2,3-pentanediol.
A total of 18 Wistar Han rats were acclimatized for 6 days. After that time, 9 rats remained on a normal diet, while 9 rats were switched to a choline deficient high fat diet (CDHFD) (L-Amino Acid Diet With 45 kcal % Fat With 0.1% Methionine, No Added Choline and 1% Cholesterol) (Research Diet, catalog #A16092003, https://researchdiets.com/en/formulas/a16092003). Rats had ad libitum access to food and water at all times unless differently specified. Body weight was measured every week.
Following 10 weeks of diet treatment, rats were randomised into groups each group composed of 3 healthy and 3 NASH rats for dosing with the different compounds.
Each group received an emulsion containing the compounds reported in table 1 at the indicated amount.
Each compound preparation was administered as an emulsion containing 15% Tween80 diluted in water to deliver the target amount in 5 mL/kg body weight. The emulsion was administered by oral gavage after the rats were fasted for 16 hours.
Blood samples were collected pre (0 min) and post compound administration at the following timepoints: 5 min, 15 min, 30 min, 1 h, 1.5 h, 2 h, 4 h, 8 h, 12 h, and 24 h.
At each time point, ˜200 μL blood samples were collected into EDTA-K2 tubes and placed on wet ice until centrifugation. Plasma was generated, from the blood samples, by centrifugation at approximately 4° C., 3,200 g for 5 min.
A total of 100 μL of plasma was collected respectively and transferred into Eppendorf tubes. Of these, 95 μL of plasma were spiked with 400 μL of internal standard in acetonitrile, vortexed for 30s and centrifuged for 15 min at 3220 g. A total of 100 μL of supernatant was used for compounds quantification, unless differently specified.
Response for each compound was normalized by the response of the internal standard, and absolute quantification was performed against a calibration curve.
In data set [2] the test system is healthy human hepatocytes. Briefly: Metabolism of VOCs by healthy human hepatocytes (organ-on-a-chip). The procedure: Organ-on-a chip samples were used.
Organ-on-a chip is a three-dimensional hepatocytes culturing system developed by a company called CN-Bio Ltd. Aliquots of media spiked with VOCs and collected at different time points are analysed using CENTRI-GC-MS a system for VOCs headspace detection and quantification. The experiment contained samples from healthy hepatocytes in the culture medium exposed to 2-butanol, nonanal at one of the concentrations: 50, 10, 2 and 0 ng/μL, and the control which is the culture medium without hepatocytes containing 2-butanol, and nonanal of the same concentration.
System suitability test (SST) and […] standards check (0, 2, 10 and 50 ng/μL), were run in duplicate at the beginning, in the middle and at the end of the sequence to mitigate against the risk of an instrumental deviation.
Empty tubes were also run at the beginning, in the middle and at the end of the sequence to mitigate against the risk of a carryover 0.5 μL Internal standards (1000 ng/μL) were spiked into each sample prior to analysis.

For data set [3], the system named is healthy and NASH hepatocytes. Particulars: for level of probe in presence of NASH and healthy hepatocytes compared with absence of hepatocytes: 50 ng/μL in culture medium, aliquots 0.5 to 24 hours. The source says:
Organ-on-a-chip containing healthy human hepatocytes and human hepatocytes treated to generate a model of a healthy or NASH liver disease were used in the following experiments. The Organ-on-a-chip containing healthy human hepatocytes are similar to the Organ-on-a-chip described above, but the experiment also included a model of NASH hepatocytes. The latter are obtained by treating healthy hepatocytes with Kupfer cells and hepatocytes stellate cells.
Primary human hepatocytes (PHHs), Kupffers cells (KCs), and hepatic stellate cells (HSCs) were seeded onto CN-Bio's PhysioMimix LC12 MPS culture plates at 6×10^5 cells for PHHs and 6×10^4 cells for HKCs and HSCs (necessary to induce the NASH phenotype) per well in CN-Bio's seeding medium. Throughout the experiment the cells were maintained at a medium flow rate of 1 μl/s. At days 4, 6, 8, 11, and 12 post seeding, medium aliquots were taken to measure LDH and albumin to assess cell health. At day 13 (24 hours post VOCs treatment), final medium collection for analysis was performed. Scaffolds were fixed in 4% formaldehyde for Oil Red O staining to assess lipid accumulation.
Primary hepatocytes were treated with 2-butanol and nonanal diluted in the hepatocytes culture medium at a concentration of 50 ng/μL. Aliquots of the culture medium were collected at 0.5, 1, 2, 4, 6, and 24 hours. The remaining medium-compound mix that was not added to the cells was considered as 0 timepoint reference. Headspace analysis was performed by using Centri, an automated system used to collect VOCs in the headspace, coupled with a GC-MS Orbi-trap system, a high-resolution mass spectrometer for detection and quantification of VOCs. Peak identification of 2-butanol, 2-butanone, nonanal, and 1-nonanol was performed by comparing the peak against a reference standard. A p-value<0.05 was considered as statistically significant.

Data set [4] can be described thus: Nonanal and 2-butanol washout in breath of volunteers. Conditions: three volunteers; swallowed emulsion with 500 mg of Nonanal and 100 mg of 2-butanol; GC-MS. The protocol:
An analysis of nonanal and 2-butanol washout of breath samples collected from three volunteers investigated before and after the intake of 500 mg of Nonanal and 100 mg of 2-butanol was performed. Three breath collections have been performed per each volunteer.
Three Volunteers participated in this trial for 3 times. They swallowed an emulsion containing 500 mg of Nonanal and 100 mg of 2-butanol and their breath was collected at 8 different time points before and after the emulsion intake using the ReCIVA, a face mask containing tubes for breath collection, and storage of exhaled VOCs.
Appearance on breath and conversion of the probes to their bioproducts was measured using gas-chromatography mass-spectrometry (GC-MS).

[5] abbreviates: after oral 2-pentanone 160 mg/Kg.
The mark [6] stands for this setting: hepatocytes treated with 2-butanol and nonanal at 50 ng/μL.

Sequence of AKR1B10 (O60218 whole entry): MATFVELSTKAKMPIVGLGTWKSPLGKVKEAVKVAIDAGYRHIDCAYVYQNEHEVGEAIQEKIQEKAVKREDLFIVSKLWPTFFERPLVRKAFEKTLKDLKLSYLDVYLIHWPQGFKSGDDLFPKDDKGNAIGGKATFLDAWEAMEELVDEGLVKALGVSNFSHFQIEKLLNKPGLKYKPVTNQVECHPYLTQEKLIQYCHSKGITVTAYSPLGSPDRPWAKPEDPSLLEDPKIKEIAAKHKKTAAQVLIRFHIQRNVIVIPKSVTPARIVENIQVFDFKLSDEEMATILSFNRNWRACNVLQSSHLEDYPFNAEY

For the compound `CCCCCCCCCO` [1-nonanol], the “production of 1-nonanol, levels in WT compared to AKR1B10 KO cells” value at AKR1B10 (human, 30 μM) is reported as 3 times higher.

Regarding `CC(O)C(C)O` (centres unmarked) [2,3-butanediol], in data set [1], the “time after administration at which blood concentration increases” value is 240 min and the “blood levels, CDHFD compared to ND rats” value was “higher levels in CDHFD compared to ND rats”.

For `CCC(O)C(C)O` (centres unmarked) [2,3-pentanediol], in data set [1] (setting [5]), the “blood levels, CDHFD rats compared to ND rats” value was “higher in CDHFD rats compared to ND rats after 4 hours” and the “time after administration after which blood levels increased” value is 1 h.

Take `CCC(C)O` (centres unmarked) [2-butanol]: in data set [2] (50, 10, 2 and 0 ng/μL, healthy hepatocytes, headspace GC-MS), the “level of probe over 24 hours in media alone and media with hepatocytes” value is “a decrease both in media alone and media with hepatocytes”. Further, the “level of probe in presence of NASH and healthy hepatocytes compared with absence of hepatocytes” value in data set [3] is recorded as “more marked reduction at 24 h”. The “detection in breath samples after emulsion intake” value in data set [4] is “detected”.

For the compound `CCC(C)=O` [2-butanone], the “level of bioproduct over time in media with hepatocytes” value in data set [2] (hepatocytes exposed to nonanal and 2-butanol, 50, 10, 2 and 0 ng/μL) is “a spike and subsequent decrease”. Also, in data set [3] (setting [6]), the “area of the bioproduct peak, NASH versus healthy hepatocytes” value is “the area under the peak for healthy is larger than for NASH” and the “production of bioproduct, NASH versus healthy hepatocytes” value is given as “Healthy hepatocytes showed higher production of 2-butanone at 6 hours”.

With `CC(=O)C(C)O` (centres unmarked) [3-hydroxy-2-butanone], in data set [1], the “time after administration at which blood concentration increases” value stood at 240 min and the “blood levels, CDHFD compared to ND rats” value is recorded as “higher levels in CDHFD compared to ND rats”.

As for `O=Cc1ccccc1` [benzylaldehyde], at AKR1B10 (cancer cell line overexpressing AKR1B10, substrates added to the culture media), the “conversion of the substrate to the respective bioproduct” value (shortened to “conversion of the substrate”) is listed as “conversion to the bioproducts in a timeframe of 6 hours”.

As to `CC(C)=CCCC(C)=CC=O` [citral], the “conversion of the substrate” value on AKR1B10 (human, 6 h) was “conversion to the bioproducts in a timeframe of 6 hours”.

With `CCCCCC=O` [hexanal], the “conversion of the substrate” value at AKR1B10 (human, 6 h) is “conversion to the bioproducts in a timeframe of 6 hours”.

As to `CCCCCCCCC=O` [nonanal], on AKR1B10, the “bioproduct generation after ablation of AKR1B10 or treatment of the cells with AKRs inhibitors” value is “reduced or absent bioproduct generation” and the “substrate of AKR1B10 (converted to 1-nonanol / trans-2-hexenol by this enzyme)” value is reported as “substrates for AKR1B10”. In addition, at AKR1B10 (human, 3 h, 30 μM), the “level of nonanal in medium added to WT or AKR1B10 KO cell lines, versus medium without cells” value is “increased reduction over 3 hours”. For the same compound, the “conversion of the substrate” value on AKR1B10 (human, 6 h) was “conversion to the bioproducts in a timeframe of 6 hours”. Moreover, in data set [3], the “level of probe in presence of NASH and healthy hepatocytes compared with absence of hepatocytes” value is listed as “more marked reduction”.

With `CCC/C=C/C=O` [trans-2-hexenal], at AKR1B10, the “bioproduct generation after ablation of AKR1B10 or treatment of the cells with AKRs inhibitors” value was “reduced or absent bioproduct generation” and the “substrate of AKR1B10 (converted to 1-nonanol / trans-2-hexenol by this enzyme)” value is “substrates for AKR1B10”. Further, the “production of bioproduct of trans-2-hexenal, levels in WT compared to AKR1B10 KO cells” value at AKR1B10 (human, 10 μM) worked out at 10 times higher. For the same compound, the “level of trans-2-hexenal in medium added to WT or AKR1B10 KO cell lines, versus medium without cells” value at AKR1B10 (human, 3 h, 10 μM) is given as “increased reduction over 3 hours”. Moreover, the “conversion of the substrate” value on AKR1B10 (human, 6 h) is “conversion to the bioproducts in a timeframe of 6 hours”.
